Data published in ChEMBL document CHEMBL1151341, “Constituents of Nealchornea yapurenis (Euophorbiaceae)” (J Nat Prod, 1980).
Calls of active or inactive are those of the source. The calls are words filed in the database; no cut-off is given here.

What follows are compounds tested on P388 (assay: Antitumor activity against mouse P388 cells xenografted in mouse at 50 to 400 mg/kg).
Format: functional, organism-based

| SMILES | Activity |
| --- | --- |
| CCCCCCCCCCCCCCCCCCCCCCCCCC(=O)O | inactive |
| CC[C@H](CC[C@@H](C)[C@H]1CC[C@H]2[C@@H]3CC=C4C[C@@H](O[C@@H]5O[C@H](CO)[C@@H](O)[C@H](O)[C@H]5O)CC[C@]4(C)[C@H]3CC[C@]12C)C(C)C | inactive |
| COc1cc2ccc(=O)oc2cc1O | inactive |
| CC[C@H](CC[C@@H](C)[C@H]1CC[C@H]2[C@@H]3CC=C4C[C@@H](O)CC[C@]4(C)[C@H]3CC[C@]12C)C(C)C | inactive |
